Results from patent US9732386B2, “Cell aging as a unique biomarker of major depression” (THE REGENTS OF THE UNIVERSITY OF CALIFORNIA, priority 2010, dated 2017).

Tested on: subjects with Major Depressive Disorder
Assay: Hamilton Depression Rating Scale (HDRS) ratings over 8 weeks of open-label sertraline treatment
Format: in vivo, human

CN[C@H]1CC[C@@H](c2ccc(Cl)c(Cl)c2)c2ccccc21 [sertraline]
HDRS ratings, Mean±SD (Week 8 of sertraline treatment, 50 to max 200 mg per day, 16 depressed subjects, Baseline 18.50±3.65, paired t=5.67, p<0.000): 10.19±4.62 | range of changes in HDRS ratings (over the 8-week course of sertraline treatment, individual subjects): 27% worsening to 82% improvement | mean improvement in HDRS ratings (over the 8-week course of sertraline treatment, relative to baseline): 42.3±31%
